Laboratory results reported in US20170190671A1, “BIS(ARYL)CATECHOL DERIVATIVES AS HERBICIDES” (E I DU PONT DE NEMOURS AND COMPANY, priority 2014, published 2017).

How the values were obtained:
[1] = tested on: pigweed (Amaranthus retroflexus); assay: Test A preemergence; type: in vivo; settings: Amaranthus retroflexus, pre-emergence, 240 h, 0 to 100 scale (0 no effect, 100 complete control), read-out: Pigweed plant response rating
In short: (§1)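 Pre- and postemergence greenhouse screen. Soil: loam + sand. Spray carrier: solvent mixture, non-phytotoxic, with surfactant. Post timing at 1–2 leaves, height 2–10 cm. Readout: visual injury on a 0–100 scale roughly 10 days after application, untreated plants as reference.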

[2] = tested on: ragweed (common ragweed, Ambrosia elatior); assay: Test A preemergence; type: in vivo; settings: Ambrosia artemisiifolia, pre-emergence, 240 h, 0 to 100 scale (0 no effect, 100 complete control), read-out: Ragweed plant response rating
In short: as §1

[3] = tested on: Italian ryegrass (Lolium multiflorum); assay: Test A preemergence; type: in vivo; settings: Lolium multiflorum, pre-emergence, 240 h, 0 to 100 scale (0 no effect, 100 complete control), read-out: Ryegrass, Italian plant response rating
In short: as §1

[4] = tested on: barnyardgrass (Echinochloa crus-galli); assay: Test A preemergence; type: in vivo; settings: Echinochloa crus-galli, pre-emergence, 240 h
In short: as §1

kochia (Kochia scoparia) [5] = assay: Test A preemergence; type: in vivo; settings: Bassia scoparia, pre-emergence, 240 h, 0 to 100 scale (0 no effect, 100 complete control), read-out: Kochia plant response rating
In short: as §1

[6] = tested on: giant foxtail (Setaria faberii); assay: Test A preemergence; type: in vivo; settings: Setaria faberi, pre-emergence, 240 h, 0 to 100 scale (0 no effect, 100 complete control), read-out: Foxtail, Giant plant response rating
In short: as §1

[7] = tested on: galium (catchweed bedstraw, Galium aparine); assay: Test A postemergence; type: in vivo; settings: Galium, post-emergence, 240 h, 0 to 100 scale, read-out: Plant response rating, Galium
In short: as §1

[8] = tested on: wheat (Triticum aestivum); assay: Test A postemergence; type: in vivo; settings: Triticum aestivum, post-emergence, 240 h, 0 to 100 scale, read-out: Plant response rating, Wheat
In short: as §1

[9] = tested on: pigweed (Amaranthus retroflexus); assay: Test A postemergence; type: in vivo; settings: Amaranthus retroflexus, post-emergence, 240 h, 0 to 100 scale, read-out: Plant response rating, Pigweed
In short: as §1

[10] = tested on: ragweed (common ragweed, Ambrosia elatior); assay: Test A postemergence; type: in vivo; settings: Ambrosia artemisiifolia, post-emergence, 240 h, 0 to 100 scale, read-out: Plant response rating, Ragweed
In short: as §1

[11] = tested on: Italian ryegrass (Lolium multiflorum); assay: Test A postemergence; type: in vivo; settings: Lolium multiflorum, post-emergence, 240 h, 0 to 100 scale, read-out: Plant response rating, Ryegrass, Italian
In short: as §1

corn (Zea mays) = assay: Test A postemergence; type: in vivo; settings: Zea mays, post-emergence, 240 h, 0 to 100 scale
In short: as §1

[12] = tested on: barnyardgrass (Echinochloa crus-galli); assay: Test A postemergence; type: in vivo; settings: Echinochloa crus-galli, post-emergence, 240 h, 0 to 100 scale, read-out: Plant response rating, Barnyardgrass
In short: as §1

kochia (Kochia scoparia) [13] = assay: Test A postemergence; type: in vivo; settings: Bassia scoparia, post-emergence, 240 h, 0 to 100 scale, read-out: Plant response rating, Kochia
In short: as §1

[14] = tested on: blackgrass (Alopecurus myosuroides); assay: Test A postemergence; type: in vivo; settings: Alopecurus myosuroides, post-emergence, 240 h, 0 to 100 scale, read-out: Plant response rating, Blackgrass
In short: as §1

[15] = tested on: giant foxtail (Setaria faberii); assay: Test A postemergence; type: in vivo; settings: Setaria faberi, post-emergence, 240 h, 0 to 100 scale, read-out: Plant response rating, Foxtail, Giant
In short: as §1

[16] = tested on: pigweed (Amaranthus retroflexus); assay: Test C postemergence; type: in vivo; settings: Amaranthus retroflexus, post-emergence, 336 h, Postemergence, scale 0 to 100, read-out: Plant response rating, Pigweed
[17] = tested on: waterhemp (common waterhemp, Amaranthus rudis); assay: Test C postemergence; type: in vivo; settings: Amaranthus tuberculatus, post-emergence, Postemergence, scale 0 to 100, read-out: Plant response rating, Waterhemp
[18] = tested on: ducksalad (Heteranthera limosa); assay: Test B flooded paddy; type: in vivo; settings: Heteranthera limosa, 336 h; 250 g ai/ha, Flood, 13 to 15 days, scale 0 (no effect) to 100 (complete control); read-out: Plant response rating, Ducksalad
In short: (§2)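 Ratings were visual and made relative to untreated controls after 13 to 15 greenhouse days.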

rice (Oryza sativa) = assay: Test B flooded paddy; type: in vivo; settings: Oryza sativa, 336 h; 250 g ai/ha, Flood, 13 to 15 days, scale 0 (no effect) to 100 (complete control); read-out: Plant response rating, Rice
In short: as §2

[19] = tested on: barnyardgrass (Echinochloa crus-galli); assay: Test B flooded paddy; type: in vivo; settings: Echinochloa crus-galli, 336 h; 250 g ai/ha, Flood, 13 to 15 days, scale 0 (no effect) to 100 (complete control); read-out: Plant response rating, Barnyardgrass
In short: as §2

[20] = tested on: sedge, umbrella (small-flower umbrella sedge, Cyperus difformis); assay: Test B flooded paddy; type: in vivo; settings: Cyperus difformis, 336 h; 250 g ai/ha, Flood, 13 to 15 days, scale 0 (no effect) to 100 (complete control); read-out: Plant response rating, Sedge, Umbrella
In short: as §2

For `Fc1ccc(F)c(Oc2ncc(Cl)cn2)c1Oc1ncc(Cl)cn1` [Compound 34, 2,2′-[(3,6-difluoro-1,2-phenylene)bis(oxy)]bis[5-chloropyrimidine]], the pest or weed control at 31 g/ha ([1]; 31 g ai/ha) was 100%, the pest or weed control at 125 g/ha ([1]; 125 g ai/ha) was 100% and the pest or weed control at 31 g/ha ([2]; 31 g ai/ha) was 0%. For the same molecule, the pest or weed control at 125 g/ha ([2]; 125 g ai/ha) was 10%, the pest or weed control at 31 g/ha ([3]; 31 g ai/ha) was 0% and the pest or weed control at 125 g/ha ([3]; 125 g ai/ha) was 50%. The pest or weed control at 31 g/ha ([4]; 31 g ai/ha, 0 to 100 scale (0 no effect, 100 complete control), read-out: Barnyardgrass plant response rating) was 10%, the pest or weed control at 125 g/ha ([4]; 125 g ai/ha, 0 to 100 scale, read-out: Plant response rating, Barnyardgrass) was 80% and the pest or weed control at 31 g/ha (kochia (Kochia scoparia) [5]; 31 g ai/ha) was 80%. It also gave a pest or weed control at 125 g/ha (kochia (Kochia scoparia) [5]; 125 g ai/ha) of 90%, a pest or weed control at 31 g/ha ([6]; 31 g ai/ha) of 70% and a pest or weed control at 125 g/ha ([6]; 125 g ai/ha) of 90%. For the same molecule, the melting point was 158 to 161 °C, the pest or weed control at 31 g/ha ([7]; 31 g ai/ha) was 80% and the pest or weed control at 125 g/ha ([7]; 125 g ai/ha) was 90%. The plant injury at 31 g/ha ([8]; 31 g ai/ha) was 0%, the plant injury at 125 g/ha ([8]; 125 g ai/ha) was 30% and the pest or weed control at 31 g/ha ([9]; 31 g ai/ha) was 70%. The pest or weed control at 125 g/ha ([9]; 125 g ai/ha) was 80%, the pest or weed control at 31 g/ha ([10]; 31 g ai/ha) was 30% and the pest or weed control at 125 g/ha ([10]; 125 g ai/ha) was 50%. It also gave a pest or weed control at 31 g/ha ([11]; 31 g ai/ha) of 10%, a pest or weed control at 125 g/ha ([11]; 125 g ai/ha) of 50% and a Corn plant response rating (crop injury, 0 = no effect, 100 = complete kill) at 31 g/ha (corn (Zea mays); 31 g ai/ha) of 0%. It also gave a Corn plant response rating (crop injury, 0 = no effect, 100 = complete kill) at 125 g/ha (corn (Zea mays); 125 g ai/ha) of 10%, a pest or weed control at 31 g/ha ([12]; 31 g ai/ha) of 0% and a pest or weed control at 125 g/ha ([12]; 125 g ai/ha) of 50%. The pest or weed control at 31 g/ha (kochia (Kochia scoparia) [13]; 31 g ai/ha) was 50%, the pest or weed control at 125 g/ha (kochia (Kochia scoparia) [13]; 125 g ai/ha) was 70% and the pest or weed control at 31 g/ha ([14]; 31 g ai/ha) was 60%. For the same molecule, the pest or weed control at 125 g/ha ([14]; 125 g ai/ha) was 70%, the pest or weed control at 31 g/ha ([15]; 31 g ai/ha) was 30% and the pest or weed control at 125 g/ha ([15]; 125 g ai/ha) was 70%. It also gave a pest or weed control at 31 g/ha ([16]; 31 g ai/ha) of 80%, a pest or weed control at 62 g/ha ([16]; 62 g ai/ha) of 90% and a pest or weed control at 125 g/ha ([16]; 125 g ai/ha) of 90%. The pest or weed control at 31 g/ha ([17]; 31 g ai/ha) was 70%, the pest or weed control at 62 g/ha ([17]; 62 g ai/ha) was 80% and the pest or weed control at 125 g/ha ([17]; 125 g ai/ha) was 90%. For the same molecule, the pest or weed control at 250 g/ha [18] was 30%, the plant injury at 250 g/ha (rice (Oryza sativa)) was 0% and the pest or weed control at 250 g/ha [19] was 0%. It also gave a pest or weed control at 250 g/ha [20] of 30%.
